Source: patent publication US20260256792A1, “TREATMENT OF CHRONIC SPONTANEOUS URTICARIA BY ADMINISTERING (R)-2-[3-[4-AMINO-3-(2-FLUORO-4-PHENOXY-PHENYL)PYRAZOLO[3,4-D]PYRIMIDIN-1-YL]PIPERIDINE-1-CARBONYL]-4-METHYL-4-[4-(OXETAN-3-YL)PIPERAZIN-1-YL]PENT-2-ENENITRILE” (priority 2023, published 2026)

System: moderate-to-severe chronic spontaneous urticaria (CSU)
Assay: Phase 2 CSU study: urticaria activity score over 7 days (UAS7)
Type: in vivo, human
Conditions: Omalizumab-Naïve
Text: The study comprises a 12 week, randomized, double-blind, placebo-controlled, multi-center, dose-ranging efficacy and safety phase, followed by a 40 week open label extension (OLE) phase (see FIG. 1). The study consists of three phases and an optional OLE phase. […] Clinically, CSU is characterized by the spontaneous and recurrent appearance of pruritic hives. The proposed primary endpoints were the UAS7 at Week 12 in EU and EU reference countries and the ISS7 in the US. Regardless of where a participant was from, all assessments were the same. The UAS7 score is a composite score containing both the HSS7 and the ISS7. This allowed a global assessment of the two key components of urticaria: hives and itch. […] The UAS is a validated PRO measure. […] The daily UAS scores range from 0 to 6 point/day. […] Patients were to complete the UAS using the e-diary. […] The following secondary endpoints were to be analyzed using the same approach as for the primary endpoint: • Change from baseline in UAS7 at Week 4 • Change from baseline in UAS7 at Week 12 (for US and US reference countries) • Change from baseline in ISS7 at Week 12 (except US and US reference countries) • Change from baseline in HSS7 at Week 12 The following responder secondary endpoints were to be analyzed using the Cochran-Mantel-Haenszel test adjusted by region: • Proportion of participants with UAS7<6 at Week 12 • Proportion of participants with UAS7=0 at Week 12 Participants who received selected prohibited medications and/or rescue medications were to be considered as non-responders for time points after the medication usage. For other participants, all available data including those collected during the off-treatment period were to be used to determine the responder/non-responder status. Missing data were to be considered as non-responders.

[1] = Baseline Eosinophils (10^9/L) ≥0.3, 400 mg BID
[2] = Baseline Eosinophils (10^9/L) ≥0.3, 400 mg QPM
[3] = Baseline Eosinophils (10^9/L) ≥0.3, 400 mg TID
[4] = Baseline H1-antihistamines dose 1-fold, 400 mg BID
[5] = Baseline H1-antihistamines dose 1-fold, 400 mg QPM
[6] = Baseline H1-antihistamines dose 1-fold, 400 mg TID
[7] = Baseline H1-antihistamines dose 2 to 4-fold standard dose, 400 mg BID
[8] = Baseline H1-antihistamines dose 2 to 4-fold standard dose, 400 mg QPM
[9] = Baseline H1-antihistamines dose 2 to 4-fold standard dose, 400 mg TID
[10] = Baseline ISS7 score <13, 400 mg BID
[11] = Baseline ISS7 score <13, 400 mg QPM
[12] = Baseline ISS7 score <13, 400 mg TID
[13] = Baseline ISS7 score ≥13, 400 mg BID
[14] = Baseline ISS7 score ≥13, 400 mg QPM
[15] = Baseline ISS7 score ≥13, 400 mg TID
[16] = Baseline Total IgE (IU/mL) <100, 400 mg BID
[17] = Baseline Total IgE (IU/mL) <100, 400 mg QPM
[18] = Baseline Total IgE (IU/mL) <100, 400 mg TID
[19] = Baseline Total IgE (IU/mL) <300, 400 mg BID
[20] = Baseline Total IgE (IU/mL) <300, 400 mg QPM
[21] = Baseline Total IgE (IU/mL) <300, 400 mg TID
[22] = Baseline Total IgE (IU/mL) ≥100, 400 mg BID
[23] = Baseline Total IgE (IU/mL) ≥100, 400 mg QPM
[24] = Baseline Total IgE (IU/mL) ≥100, 400 mg TID

Question: With `CC(C)(C=C(C#N)C(=O)N1CCC[C@@H](n2nc(-c3ccc(Oc4ccccc4)cc3F)c3c(N)ncnc32)C1)N1CCN(C2COC2)CC1` [rilzabrutinib, (R)-2-[3-[4-amino-3-(2-fluoro-4-phenoxy-phenyl)pyrazolo[3,4-d]pyrimidin-1-yl]piperidine-1-carbonyl]-4-methyl-4-[4-(oxetan-3-yl)piperazin-1-yl]pent-2-enenitrile] as the compound, how does the “Change from Baseline in UAS7 at Week 12: Mean (SD)” value (“Change from Baseline in UAS7 … (SD)” below) (Baseline Eosinophils (10^9/L) ≥0.165 (Median), 400 mg TID) read?
Answer: −16.50 (9.30)

Question: What about the “Change from Baseline in UAS7 at Week 12: LS Mean Diff vs. placebo (95% CI)” value (“Change from Baseline in UAS7 … (95% CI)” for short) [1] of the same compound?
Answer: −3.40 (−16.66, 9.86)

Question: What about the “Change from Baseline in UAS7 … (SD)” value [1] of the same compound?
Answer: −13.11 (12.32)

Question: And the “Change from Baseline in UAS7 at Week 12: LS Mean (SE)” value (from here on “Change from Baseline in UAS7 … (SE)”) [2]?
Answer: −9.66 (4.84)

Question: And the “Change from Baseline in UAS7 … (95% CI)” value [2]?
Answer: −2.00 (−16.22, 12.21)

Question: What about the “Change from Baseline in UAS7 … (SD)” value [2] of the same compound?
Answer: −9.69 (12.55)

Question: And the “Change from Baseline in UAS7 … (SE)” value [3]?
Answer: −13.16 (4.09)

Question: What about the “Change from Baseline in UAS7 … (95% CI)” value [3] of the same compound?
Answer: −5.51 (−18.58, 7.57)

Question: And the “Change from Baseline in UAS7 … (SD)” value [3]?
Answer: −14.65 (7.48)

Question: What about the “Change from Baseline in UAS7 … (SE)” value [4] of the same compound?
Answer: −15.75 (3.11)

Question: What about the “Change from Baseline in UAS7 … (95% CI)” value [4] of the same compound?
Answer: −3.48 (−11.69, 4.73)

Question: What about the “Change from Baseline in UAS7 … (SD)” value [4] of the same compound?
Answer: −18.22 (14.88)

Question: What about the “Change from Baseline in UAS7 … (SE)” value [5] of the same compound?
Answer: −7.64 (2.73)

Question: And the “Change from Baseline in UAS7 … (95% CI)” value [5]?
Answer: 4.64 (−2.96, 12.23)

Question: And the “Change from Baseline in UAS7 … (SD)” value [5]?
Answer: −8.61 (9.50)

Question: And the “Change from Baseline in UAS7 … (SE)” value [6]?
Answer: −14.92 (2.59)

Question: What about the “Change from Baseline in UAS7 … (95% CI)” value [6] of the same compound?
Answer: −2.65 (−10.05, 4.76)

Question: And the “Change from Baseline in UAS7 … (SE)” value [7]?
Answer: −12.98 (2.55)

Question: And the “Change from Baseline in UAS7 … (95% CI)” value [7]?
Answer: −6.42 (−13.94, 1.10)

Question: And the “Change from Baseline in UAS7 … (SE)” value [8]?
Answer: −10.93 (2.77)

Question: What about the “Change from Baseline in UAS7 … (95% CI)” value [8] of the same compound?
Answer: −4.37 (−12.30, 3.56)

Question: What about the “Change from Baseline in UAS7 … (SD)” value [8] of the same compound?
Answer: −12.81 (9.00)

Question: And the “Change from Baseline in UAS7 … (SE)” value [9]?
Answer: −20.96 (3.15)

Question: And the “Change from Baseline in UAS7 … (95% CI)” value [9]?
Answer: −14.41 (−22.75, −6.07)

Question: What about the “Change from Baseline in UAS7 … (SD)” value [9] of the same compound?
Answer: −24.73 (10.10)

Question: And the “Change from Baseline in UAS7 … (SE)” value [10]?
Answer: −9.30 (4.02)

Question: And the “Change from Baseline in UAS7 … (95% CI)” value [10]?
Answer: −4.39 (−14.52, 5.74)

Question: And the “Change from Baseline in UAS7 … (SD)” value [10]?
Answer: −10.78 (8.33)

Question: And the “Change from Baseline in UAS7 … (SE)” value [11]?
Answer: −3.27 (5.21)

Question: What about the “Change from Baseline in UAS7 … (95% CI)” value [11] of the same compound?
Answer: 1.64 (−10.30, 13.58)

Question: What about the “Change from Baseline in UAS7 … (SD)” value [11] of the same compound?
Answer: −5.83 (3.06)

Question: And the “Change from Baseline in UAS7 … (SE)” value [12]?
Answer: 9.24 (6.48)

Question: And the “Change from Baseline in UAS7 … (95% CI)” value [12]?
Answer: −4.33 (−18.30, 9.63)

Question: And the “Change from Baseline in UAS7 … (SD)” value [12]?
Answer: −10.75 (6.01)

Question: What about the “Change from Baseline in UAS7 … (SE)” value [13] of the same compound?
Answer: −15.07 (2.33)

Question: And the “Change from Baseline in UAS7 … (95% CI)” value [13]?
Answer: −4.32 (−10.91, 2.27)

Question: What about the “Change from Baseline in UAS7 … (SD)” value [13] of the same compound?
Answer: −15.60 (12.97)

Question: And the “Change from Baseline in UAS7 … (95% CI)” value [14]?
Answer: 0.28 (−6.08, 6.64)

Question: And the “Change from Baseline in UAS7 … (SD)” value [14]?
Answer: −10.91 (9.59)

Question: What about the “Change from Baseline in UAS7 … (SE)” value [15] of the same compound?
Answer: −18.70 (2.15)

Question: What about the “Change from Baseline in UAS7 … (95% CI)” value [15] of the same compound?
Answer: −7.95 (−14.32, −1.57)

Question: And the “Change from Baseline in UAS7 … (SE)” value [16]?
Answer: −15.72 (3.24)

Question: And the “Change from Baseline in UAS7 … (95% CI)” value [16]?
Answer: −8.43 (−17.18, 0.33)

Question: What about the “Change from Baseline in UAS7 … (SD)” value [16] of the same compound?
Answer: −16.26 (11.38)

Question: And the “Change from Baseline in UAS7 … (SE)” value [17]?
Answer: 8.49 (3.25)

Question: And the “Change from Baseline in UAS7 … (95% CI)” value [17]?
Answer: −1.19 (−10.05, 7.67)

Question: And the “Change from Baseline in UAS7 … (SE)” value [18]?
Answer: −17.40 (3.01)

Question: And the “Change from Baseline in UAS7 … (95% CI)” value [18]?
Answer: −10.10 (−18.54, −1.65)

Question: What about the “Change from Baseline in UAS7 … (SD)” value [18] of the same compound?
Answer: −21.03 (13.37)

Question: What about the “Change from Baseline in UAS7 … (SE)” value [19] of the same compound?
Answer: −14.78 (2.46)

Question: And the “Change from Baseline in UAS7 … (95% CI)” value [19]?
Answer: −6.72 (−13.41, −0.03)

Question: And the “Change from Baseline in UAS7 … (SD)” value [19]?
Answer: 15.35 (12.23)

Question: And the “Change from Baseline in UAS7 … (SE)” value [20]?
Answer: −9.07 (2.38)

Question: And the “Change from Baseline in UAS7 … (95% CI)” value [20]?
Answer: −1.01 (−7.60, 5.59)

Question: What about the “Change from Baseline in UAS7 … (SD)” value [20] of the same compound?
Answer: −10.61 (9.62)

Question: What about the “Change from Baseline in UAS7 … (SE)” value [21] of the same compound?
Answer: −18.19 (2.47)

Question: What about the “Change from Baseline in UAS7 … (95% CI)” value [21] of the same compound?
Answer: −10.13 (−16.83, −3.44)

Question: What about the “Change from Baseline in UAS7 … (SD)” value [21] of the same compound?
Answer: −20.66 (12.39)

Question: And the “Change from Baseline in UAS7 … (SE)” value [22]?
Answer: −13.17 (2.55)

Question: And the “Change from Baseline in UAS7 … (95% CI)” value [22]?
Answer: −1.67 (−8.84, 5.51)

Question: What about the “Change from Baseline in UAS7 … (SD)” value [22] of the same compound?
Answer: −13.19 (12.80)

Question: And the “Change from Baseline in UAS7 … (SE)” value [23]?
Answer: −8.97 (2.49)

Question: And the “Change from Baseline in UAS7 … (95% CI)” value [23]?
Answer: 2.53 (−4.52, 9.59)

Question: What about the “Change from Baseline in UAS7 … (SD)” value [23] of the same compound?
Answer: −9.90 (9.51)

Question: And the “Change from Baseline in UAS7 … (SE)” value [24]?
Answer: −17.08 (2.69)

Question: What about the “Change from Baseline in UAS7 … (95% CI)” value [24] of the same compound?
Answer: −5.57 (−12.83, 1.69)
